Measured values from US8404713B2, “Quinolinone derivatives as PARP inhibitors” (Janssen Pharmaceutica NV, priority 2007, dated 2013).

How the values were obtained:
[1] = molecular target: T1, Human PARP-1 enzyme (Homo sapiens, UniProt P09874); test: In vitro scintillation proximity assay (SPA) for PARP-1 inhibitory activity; type: biochemical; details: nicked DNA activated PARP-1, [3H]-NAD+, biotinylated histones; tested between 10^-5 M and 3x10^-9 M; read-out: in vitro SPA assay PARP-1 pIC50 (converted)
T1 construct: purchased Trevigen
T1 sequence (P09874 whole entry): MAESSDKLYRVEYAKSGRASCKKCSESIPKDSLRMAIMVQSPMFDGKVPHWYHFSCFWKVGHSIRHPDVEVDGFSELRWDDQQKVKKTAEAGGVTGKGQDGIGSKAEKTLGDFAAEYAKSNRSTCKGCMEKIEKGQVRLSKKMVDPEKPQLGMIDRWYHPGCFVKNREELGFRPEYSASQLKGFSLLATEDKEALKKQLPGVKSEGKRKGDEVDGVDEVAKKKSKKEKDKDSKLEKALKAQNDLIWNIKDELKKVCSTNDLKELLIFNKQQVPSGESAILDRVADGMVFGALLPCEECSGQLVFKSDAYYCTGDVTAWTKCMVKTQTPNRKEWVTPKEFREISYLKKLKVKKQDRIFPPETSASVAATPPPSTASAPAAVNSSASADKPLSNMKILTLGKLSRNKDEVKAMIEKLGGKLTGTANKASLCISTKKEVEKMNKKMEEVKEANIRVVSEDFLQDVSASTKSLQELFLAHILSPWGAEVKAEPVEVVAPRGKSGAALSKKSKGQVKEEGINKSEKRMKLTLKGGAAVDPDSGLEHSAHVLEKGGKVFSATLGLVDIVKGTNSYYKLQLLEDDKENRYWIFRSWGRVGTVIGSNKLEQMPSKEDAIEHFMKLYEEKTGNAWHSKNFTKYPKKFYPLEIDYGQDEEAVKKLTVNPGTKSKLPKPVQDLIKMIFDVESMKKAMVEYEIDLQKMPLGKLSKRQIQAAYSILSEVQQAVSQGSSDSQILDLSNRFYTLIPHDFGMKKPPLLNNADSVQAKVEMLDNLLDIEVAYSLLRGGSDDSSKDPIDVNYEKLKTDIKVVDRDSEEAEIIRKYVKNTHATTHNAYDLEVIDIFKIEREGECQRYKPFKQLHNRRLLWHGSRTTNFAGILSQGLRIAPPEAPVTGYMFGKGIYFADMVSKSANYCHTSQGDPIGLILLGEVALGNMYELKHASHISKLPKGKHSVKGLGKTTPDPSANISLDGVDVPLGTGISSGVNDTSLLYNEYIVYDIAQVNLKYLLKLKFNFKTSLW
Method: C.1. In Vitro Scintillation Proximity Assay (SPA) for PARP-1 Inhibitory Activity
Compounds of the present invention were tested in an in vitro assay based on SPA technology (proprietary to GE healthcare).
In principle, the assay relies upon the well established SPA technology for the detection of poly(ADP-ribosyl)ation of biotinylated target proteins, i.e histones. This ribosylation is induced using nicked DNA activated PARP-1 enzyme and [^3H]-nicotinamide adenine dinucleotide ([^3H]-NAD^+) as ADP-ribosyl donor.
Histones (type II-A, supplier: Sigma) were biotinylated using the biotinylation kit of Amersham and stored aliquoted at −20° C. A stock solution of 100 mg/ml SPA poly(vinyl toluene) (PVT) beads (supplier: Amersham) was made in PBS. A stock solution of 61.6 nM [^3H]-NAD^+ was made by adding [^3H]-NAD^+ (0.1 mCi/ml, supplier: Perkin Elmer) to incubation buffer (50 mM Tris/HCl, pH 8; 0.2 mM DTT; 4 mM MgCl2). A solution of 4 mM NAD^+ (supplier: Sigma) was made. Human PARP-1 enzyme was obtained from Trevigen. Biotinylated histones and PVT-SPA beads were mixed and pre-incubated for 30 min. at room temperature. PARP-1 enzyme (concentration was lot dependent) was mixed with the nicked DNA and the mixture was pre-incubated for 30 min. at 4° C. Equal parts of this histones/PVT-SPA beads solution and PARP-1 enzyme/DNA solution were mixed and 75 μl of this mixture together with 1 μl of compound in DMSO and 25 μl of [^3H]-NAD^+ was added per well into a 96-well microtiterplate. The final concentrations in the incubation mixture were 2 μg/ml for the biotinylated histones, 2 mg/ml for the PVT-SPA beads, 0.25 μg/ml for the nicked DNA and between 0.1-0.2 μg/ml for the PARP-1 enzyme. After incubation of the mixture for 20 min. at room temperature, the reaction was terminated by adding 100 μl of 4 mM NAD^+ in water (final concentration 2 mM) and plates were mixed. The beads were sedimented by centrifugation (10 min, 800 rpm). and plates transferred to a TopCountNXT™ (Packard) for scintillation counting, values were expressed as counts per minute (cpm). For each experiment, controls (containing PARP-1 enzyme and DMSO without compound), a blank incubation (containing DMSO but no PARP-1 enzyme, no DNA or compound) and samples (containing PARP-1 enzyme, DNA and compound dissolved in DMSO) were run in parallel. All compounds tested were dissolved and eventually further diluted in DMSO. A dose-response curve was made wherein the compounds were tested at concentrations between 10^−5M and 3×10^−9M. In each test, the blank value was subtracted from both the control and the sample values. The control sample represented maximal PARP-1 enzyme activity. For each sample, the amount of cpm was expressed as a percentage of the mean cpm value of the controls. When appropriate, IC50-values (concentration of the drug, needed to reduce the PARP-1 enzyme activity to 50% of the control) were computed using linear interpolation between the experimental points just above and below the 50% level. Herein the effects of test compounds are expressed as pIC50 (the negative log value of the IC50-value). As a reference compound, 4-amino-1,8-naphthalimide was included to validate the SPA assay.

[2] = molecular target: T2, TANK-2 enzyme (Homo sapiens, UniProt Q9H2K2); test: In vitro scintillation proximity assay (SPA) for TANK-2 inhibitory activity; type: biochemical; details: auto-poly(ADP-ribosyl)ation, Ni flash plates; 96-well results if available, otherwise 384-well; tested between 10^-5 M and 3x10^-8 M; read-out: in vitro SPA assay TANK-2 pIC50 (converted)
T2 construct: made in house
T2 sequence (Q9H2K2 1-1166): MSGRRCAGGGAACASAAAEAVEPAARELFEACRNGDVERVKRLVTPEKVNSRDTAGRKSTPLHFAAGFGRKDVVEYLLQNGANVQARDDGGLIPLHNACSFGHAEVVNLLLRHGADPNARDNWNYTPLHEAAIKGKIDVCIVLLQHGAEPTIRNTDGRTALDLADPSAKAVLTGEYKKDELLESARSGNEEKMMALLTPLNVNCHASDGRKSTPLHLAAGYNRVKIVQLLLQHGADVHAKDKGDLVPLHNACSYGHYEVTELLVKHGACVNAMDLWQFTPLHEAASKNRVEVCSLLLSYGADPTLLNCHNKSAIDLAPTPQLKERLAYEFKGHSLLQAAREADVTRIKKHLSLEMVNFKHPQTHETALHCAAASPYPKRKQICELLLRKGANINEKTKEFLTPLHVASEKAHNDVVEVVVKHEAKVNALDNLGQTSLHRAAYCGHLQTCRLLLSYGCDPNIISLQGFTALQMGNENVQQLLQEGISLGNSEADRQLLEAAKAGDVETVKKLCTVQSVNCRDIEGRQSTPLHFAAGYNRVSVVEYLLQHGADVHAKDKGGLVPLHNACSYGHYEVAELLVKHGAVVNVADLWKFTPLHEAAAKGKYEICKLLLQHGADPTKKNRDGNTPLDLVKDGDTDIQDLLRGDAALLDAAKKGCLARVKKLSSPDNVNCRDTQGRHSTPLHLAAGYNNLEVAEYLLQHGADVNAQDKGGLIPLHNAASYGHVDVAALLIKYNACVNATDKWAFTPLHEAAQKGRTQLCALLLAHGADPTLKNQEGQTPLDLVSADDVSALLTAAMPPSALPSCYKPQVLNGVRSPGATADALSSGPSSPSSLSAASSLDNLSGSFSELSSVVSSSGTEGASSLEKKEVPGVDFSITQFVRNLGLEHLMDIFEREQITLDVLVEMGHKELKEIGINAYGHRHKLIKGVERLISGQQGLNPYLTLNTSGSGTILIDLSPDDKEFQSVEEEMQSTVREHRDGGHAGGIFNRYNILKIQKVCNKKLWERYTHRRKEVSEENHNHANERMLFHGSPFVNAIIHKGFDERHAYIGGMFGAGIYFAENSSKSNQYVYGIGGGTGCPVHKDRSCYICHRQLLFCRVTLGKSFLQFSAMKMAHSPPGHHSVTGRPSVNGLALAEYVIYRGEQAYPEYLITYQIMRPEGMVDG
Method: C.2. In Vitro Scintillation Proximity Assay (SPA) for TANK-2 Inhibitory Activity
Compounds of the present invention were tested in an in vitro assay based on SPA technology with Ni Flash plates (96 or 384 well).
In principle, the assay relies upon SPA technology for the detection of auto-poly(ADP-ribosyl)ation of TANK-2 protein using [^3H]-nicotinamide adenine dinucleotide ([^3H]-NAD^+) as ADP-ribosyl donor.
A stock solution of 100 nM [^3H]-NAD^+/NAD (0.1 mCi/ml, supplier: Perkin Elmer) and 0.25 mM NAD (Sigma) was made in assay buffer (60 mM Tris/HCl, pH 7.4; 0.9 mM DTT; 6 mM MgCl2). The TANK-2 enzyme was produced as described in EP1238063. 60 μl of assay buffer, together with 1 μl of compound in DMSO, 20 μl of [^3H]-NAD^+/NAD and 20 μl of TANK-2 enzyme (final concentration 8 μg/ml) was added per well into a 96-well Ni-coated flash plate (Perkin Elmer). After incubation of the mixture for 120 min. at room temperature, the reaction was terminated by adding 60 μl of stopsolution (42.6 mg NAD in 6 ml H2O). The plates were covered with a plate sealer and placed in a TopCountNX™ (Packard) for scintillation counting. Values were expressed as counts per minute (cpm). For each experiment, controls (containing TANK-2 enzyme and DMSO without compound), a blank incubation (containing DMSO but no TANK-2 enzyme or compound) and samples (containing TANK-2 enzyme and compound dissolved in DMSO) were run in parallel. All compounds tested were dissolved and eventually further diluted in DMSO. […] In each test, the blank value was subtracted from both the control and the sample values. The control sample represented maximal TANK-2 enzyme activity. For each sample, the amount of cpm was expressed as a percentage of the mean cpm value of the controls. When appropriate, IC50-values (concentration of the drug, needed to reduce the TANK-2 enzyme activity to 50% of the control) were computed using linear interpolation between the experimental points just above and below the 50% level. Herein the effects of test compounds are expressed as pIC50 (the negative log value of the IC50-value). As reference compounds, 3-aminobenzamide and 4-amino-1,8-naphtalimide were included to validate the SPA assay. Herein the assay was described using 96-well plates. In the assay using 384-well plates the same final concentrations were used and volumes were adapted.

| Compound | IC50 [1] [nM] | IC50 [2] [nM] |
| --- | --- | --- |
| Cc1cc2ccc(C(C(C)C)N3CCN(c4ccc(C#N)cn4)CC3)cc2[nH]c1=O (centres unmarked) [Compound 66] | 195 | 1230 |
| CCc1cc2ccc(CN3CC=C(c4ccccc4)CC3)cc2[nH]c1=O [Compound 21] | 1.03 | 986 |
| CCc1cc2ccc(CN(C)CCOC)cc2[nH]c1=O [Compound 38] | 11.9 | 867 |
| Cc1cc2ccc(C(C)N3CCN(C4CCCCC4)CC3)cc2[nH]c1=O (centres unmarked) [Compound 54] | 61.4 | > 10000 |
| Cc1cc2ccc(C(C)N3CC=C(c4ccccc4)CC3)cc2[nH]c1=O (centres unmarked) [Compound 51] | 1.49 | 1280 |
| Cc1cc2ccc(C(=O)N3CCN(c4ccccc4Cl)CC3)cc2[nH]c1=O [Compound 60] | 116 | > 10000 |
| Cc1cc2ccc(C(C)N3CCN(c4ccc(F)cc4F)CC3)cc2[nH]c1=O (centres unmarked) [Compound 52] | 1.42 | 2420 |
| CCc1cc2ccc(CNCCCc3ccccc3)cc2[nH]c1=O [Compound 46] | 9.48 | 5380 |
| Cc1cc2ccc(C(C3CCCCC3)N3CC=C(c4ccccc4)CC3)cc2[nH]c1=O (centres unmarked) [Compound 73] | 1290 | 646 |
| Cc1cc2ccc(C(=O)N3CC=C(c4ccccc4)CC3)cc2[nH]c1=O [Compound 59] | 129 | 818 |
| CCc1cc2ccc(CNCc3ccccc3)cc2[nH]c1=O [Compound 49] | 42.9 | 155 |
| CCc1cc2c(OC)cc(CN3CCN(c4ccccc4Cl)CC3)cc2[nH]c1=O [Compound 71] | 4.27 | 1780 |
| Cc1cc2ccc(C(C)N3CCN(c4ncccc4C(F)(F)F)CC3)cc2[nH]c1=O (centres unmarked) [Compound 56] | 225 | 1920 |
| COCCNC1CCN(C(C)c2ccc3cc(C)c(=O)[nH]c3c2)CC1 (centres unmarked) [Compound 55] | 92 | > 10000 |
| CCc1cc2ccc(CNCC3CCN(c4ncccn4)CC3)cc2[nH]c1=O [Compound 25] | 136 | 1100 |
| CCc1cc2ccc(C(CO)N3CCOCC3)cc2[nH]c1=O (centres unmarked) [Compound 5] | 82.8 | 1440 |
| CCc1cc2ccc(CNCCN3CCOCC3)cc2[nH]c1=O [Compound 19] | 4.6 | 5870 |
| CCc1cc2c(OC)cc(CN3CCN(c4ccc(C#N)cn4)CC3)cc2[nH]c1=O [Compound 69] | – | 57.5 |

The remaining lines, values ahead:

| IC50 [1] [nM] | IC50 [2] [nM] | Compound |
| --- | --- | --- |
| 34.2 | 500 | CCc1cc2ccc(CN3CCN(c4ccc(OC)c(OC)c4)CC3)cc2[nH]c1=O [Compound 41] |
| 2.58 | 1720 | CCc1cc2ccc(CN3CCN(c4ccc(Cl)c(Cl)c4)CC3)cc2[nH]c1=O [Compound 43] |
| 20 | 424 | CCc1cc2ccc(CN3CCc4ccccc4C3)cc2[nH]c1=O [Compound 29] |
| 124 | 144 | CCc1cc2ccc(CNCc3ccncc3)cc2[nH]c1=O [Compound 47] |
| 39.2 | 455 | CCc1cc2ccc(CN3Cc4ccccc4C3)cc2[nH]c1=O [Compound 63] |
| 1.48 | 4220 | Cc1cc2ccc(CN3CCN(c4ccccn4)CC3)cc2[nH]c1=O [Compound 57] |
| 16.3 | 1710 | CCc1cc2ccc(CN3CCN(c4cccc(Cl)c4)CC3)cc2[nH]c1=O [Compound 45] |
| 0.893 | 1300 | CCc1cc2ccc(CN3CCN(c4ccc(OC)cc4)CC3)cc2[nH]c1=O [Compound 42] |
| 237 | 1980 | Cc1cc2ccc(CN3CCN(c4ncccn4)CC3)cc2[nH]c1=O [Compound 26] |
| 25.6 | 649 | CCc1cc2ccc(CN3CCN(c4ccc(C)c(C)c4)CC3)cc2[nH]c1=O [Compound 40] |
| 403 | 3120 | CCc1cc2ccc(CN3CCC(Cc4ccccc4)CC3)cc2[nH]c1=O [Compound 31] |
| 1.14 | 398 | CCc1cc2ccc(CN3CCN(c4ccncc4)CC3)cc2[nH]c1=O [Compound 35] |
